Activity calls are given as the source filed them. The rule behind the calls is not given here.
How the values were obtained:
[1] = target: T1, NAD-dependent protein deacetylase sirtuin-1 (Homo sapiens) (UniProt Q96EB6); assay: Inhibition of recombinant GST-SIRT1 (unknown origin) using KI177 as substrate at 50 uM after 45 mins by fluorescence assay
T1 sequence (whole entry): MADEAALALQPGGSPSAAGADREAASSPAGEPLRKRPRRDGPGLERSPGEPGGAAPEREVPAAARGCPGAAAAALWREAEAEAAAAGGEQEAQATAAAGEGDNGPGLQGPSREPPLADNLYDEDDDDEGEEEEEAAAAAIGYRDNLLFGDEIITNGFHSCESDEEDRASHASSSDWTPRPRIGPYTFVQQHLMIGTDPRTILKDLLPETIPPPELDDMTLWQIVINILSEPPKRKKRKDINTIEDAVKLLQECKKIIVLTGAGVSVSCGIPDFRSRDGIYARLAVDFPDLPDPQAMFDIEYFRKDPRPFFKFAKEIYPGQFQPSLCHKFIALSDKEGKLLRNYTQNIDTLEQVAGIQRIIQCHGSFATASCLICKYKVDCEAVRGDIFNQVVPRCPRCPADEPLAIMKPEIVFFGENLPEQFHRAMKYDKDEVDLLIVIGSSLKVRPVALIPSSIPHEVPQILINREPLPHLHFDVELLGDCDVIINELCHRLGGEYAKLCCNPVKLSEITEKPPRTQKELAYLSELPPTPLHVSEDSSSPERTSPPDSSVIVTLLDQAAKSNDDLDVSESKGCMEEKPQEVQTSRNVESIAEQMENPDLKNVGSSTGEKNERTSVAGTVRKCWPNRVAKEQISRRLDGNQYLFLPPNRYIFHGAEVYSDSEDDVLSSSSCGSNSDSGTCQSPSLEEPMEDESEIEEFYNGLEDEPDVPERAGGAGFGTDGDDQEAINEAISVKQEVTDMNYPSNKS

HepG2 = assay: Cytotoxicity against human HepG2 cells at 15 uM after 72 hrs by MTT assay relative to control; assay type: functional; conditions: HepG2, 72 h, values are per cent of control
MCF7 = assay: Cytotoxicity against human MCF7 cells at 15 uM after 72 hrs by MTT assay relative to control; assay type: functional; conditions: MCF7, 72 h, values are per cent of control
[2] = Cytotoxicity against human H460 cells after 72 hrs by MTT assay; assay type: functional, cell-based; conditions: NCI-H460, 72 h
[3] = target: T2, NAD-dependent protein deacetylase sirtuin-2 (Homo sapiens) (UniProt Q8IXJ6); assay: Inhibition of recombinant GST-SIRT2 (unknown origin) using KI179 as substrate at 200 uM after 45 mins by fluorescence assay
T2 sequence (whole entry): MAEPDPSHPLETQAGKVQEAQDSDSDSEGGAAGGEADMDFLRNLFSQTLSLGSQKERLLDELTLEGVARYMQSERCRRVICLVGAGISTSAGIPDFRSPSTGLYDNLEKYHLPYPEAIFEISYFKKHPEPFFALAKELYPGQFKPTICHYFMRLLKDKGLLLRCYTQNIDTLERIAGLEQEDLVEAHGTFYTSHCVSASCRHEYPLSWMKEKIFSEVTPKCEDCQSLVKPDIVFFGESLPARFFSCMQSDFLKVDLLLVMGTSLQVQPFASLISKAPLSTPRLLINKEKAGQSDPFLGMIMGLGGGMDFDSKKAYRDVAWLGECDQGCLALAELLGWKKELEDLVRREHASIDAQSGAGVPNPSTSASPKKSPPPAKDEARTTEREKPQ

[4] = target: T3, NAD-dependent protein deacetylase sirtuin-3, mitochondrial (Homo sapiens) (UniProt Q9NTG7); assay: Inhibition of recombinant His-SIRT3 (unknown origin) using KI179 as substrate at 200 uM after 45 mins by fluorescence assay
T3 sequence (whole entry): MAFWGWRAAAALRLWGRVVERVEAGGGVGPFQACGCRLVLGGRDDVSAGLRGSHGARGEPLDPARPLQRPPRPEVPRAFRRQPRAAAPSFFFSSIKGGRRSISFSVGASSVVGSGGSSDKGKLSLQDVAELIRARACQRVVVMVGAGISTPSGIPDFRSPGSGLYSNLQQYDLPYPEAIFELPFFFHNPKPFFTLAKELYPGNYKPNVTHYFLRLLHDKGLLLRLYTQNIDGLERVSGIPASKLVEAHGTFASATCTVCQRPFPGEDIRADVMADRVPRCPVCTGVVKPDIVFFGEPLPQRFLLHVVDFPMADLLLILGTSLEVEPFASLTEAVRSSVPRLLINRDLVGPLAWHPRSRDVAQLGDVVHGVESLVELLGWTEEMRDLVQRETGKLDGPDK

[5] = target: T3, NAD-dependent protein deacetylase sirtuin-3, mitochondrial (Homo sapiens); assay: Inhibition of recombinant His-SIRT3 (unknown origin) using KI179 as substrate at 168 uM after 45 mins by fluorescence assay
[6] = target: T4, DNA topoisomerase 1 (Homo sapiens) (UniProt P11387); assay: Inhibition of human recombinant topoisomerase 1-mediated relaxation of supercoiled pBR322 at 500 uM after 60 mins by agarose gel electrophoresis
T4 sequence (whole entry): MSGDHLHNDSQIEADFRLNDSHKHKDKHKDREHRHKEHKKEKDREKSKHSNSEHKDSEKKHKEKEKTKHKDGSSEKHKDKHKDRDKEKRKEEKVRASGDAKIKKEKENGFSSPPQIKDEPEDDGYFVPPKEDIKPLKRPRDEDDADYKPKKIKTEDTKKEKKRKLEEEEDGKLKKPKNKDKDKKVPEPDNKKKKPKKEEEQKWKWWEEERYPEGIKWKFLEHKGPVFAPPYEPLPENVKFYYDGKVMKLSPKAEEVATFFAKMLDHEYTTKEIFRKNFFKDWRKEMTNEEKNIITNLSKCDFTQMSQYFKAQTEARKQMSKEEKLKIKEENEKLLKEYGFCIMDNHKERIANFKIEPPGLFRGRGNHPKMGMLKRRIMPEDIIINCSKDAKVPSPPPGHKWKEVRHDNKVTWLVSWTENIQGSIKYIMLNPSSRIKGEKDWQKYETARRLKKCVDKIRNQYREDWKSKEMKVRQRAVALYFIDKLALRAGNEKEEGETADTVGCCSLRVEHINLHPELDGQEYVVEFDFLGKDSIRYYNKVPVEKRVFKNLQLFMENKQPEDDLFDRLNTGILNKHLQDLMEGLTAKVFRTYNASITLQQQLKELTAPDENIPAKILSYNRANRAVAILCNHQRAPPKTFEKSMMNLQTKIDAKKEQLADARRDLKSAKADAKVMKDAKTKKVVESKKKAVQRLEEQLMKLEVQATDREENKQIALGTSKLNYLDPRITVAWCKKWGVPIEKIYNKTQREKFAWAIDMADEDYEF

[7] = target: T4, DNA topoisomerase 1 (Homo sapiens); assay: Inhibition of human recombinant topoisomerase 1-mediated DNA cleavage assessed as formation of nicked DNA from supercoiled pBR322 DNA up to 100 uM after 60 mins by agarose gel electrophoresis
[8] = target: T4, DNA topoisomerase 1 (Homo sapiens); assay: Inhibition of human recombinant topoisomerase 1-mediated relaxation of supercoiled pBR322 at 50 to 100 uM after 60 mins by agarose gel electrophoresis
[9] = target: T2, NAD-dependent protein deacetylase sirtuin-2 (Homo sapiens); assay: Inhibition of recombinant GST-SIRT2 (unknown origin) using KI179 as substrate at 168 uM after 45 mins by fluorescence assay

Structure (SMILES)	inhibition [1] [%]	inhibition [3] [%]	inhibition [4] [%]	inhibition [5] [%]	inhibition [6]	inhibition [7]	inhibition [8]	inhibition [9] [%]	viability, % of control at 15 µM (HepG2) [%]	viability, % of control at 15 µM (MCF7) [%]	IC50 [2] [µM]
COC(=O)[C@H]1Cc2c([nH]c3ccccc23)[C@@H]2N(C)c3ccccc3C(=O)N12	7.8	78	17	–	–	–	–	–	90	96	24
CN1c2ccccc2C(=O)N2[C@@H](C(=O)N3CCCCC3)Cc3c([nH]c4ccccc34)[C@H]12	–	–	–	–	–	–	–	–	75	63	8.5
CN1c2ccccc2C(=O)N2[C@H](C(=O)N3CCSCC3)Cc3c([nH]c4ccccc34)[C@@H]12	8.2	35	–	–	–	–	–	–	90	103	86.8
CNC(=O)[C@H]1Cc2c([nH]c3ccccc23)[C@@H]2N(C)c3ccccc3C(=O)N12	–	–	–	–	–	–	–	–	101	108	> 30
CN1CCN(C(=O)[C@H]2Cc3c([nH]c4ccccc34)[C@@H]3N(C)c4ccccc4C(=O)N23)CC1	–	–	–	–	–	–	–	–	91	74	55
CN1CCN(C(=O)[C@@H]2Cc3c([nH]c4ccccc34)[C@H]3N(C)c4ccccc4C(=O)N23)CC1	5.3	43	–	–	–	–	–	–	83	68	66
CN1c2ccccc2C(=O)N2[C@H](C(=O)N3CCOCC3)Cc3c([nH]c4ccccc34)[C@@H]12	4.1	36	–	–	–	–	–	–	88	131	73
CN1c2ccccc2C(=O)N2[C@H](C(=O)N3CCCCC3)Cc3c([nH]c4ccccc34)[C@@H]12	6.5	46	–	–	–	–	–	–	110	85	49
CN1c2ccccc2C(=O)N2[C@@H](C(=O)N3CCSCC3)Cc3c([nH]c4ccccc34)[C@H]12	–	–	–	–	–	–	–	–	89	105	> 100
CN1c2ccccc2C(=O)N2[C@@H](C(=O)N3CCOCC3)Cc3c([nH]c4ccccc34)[C@H]12	–	–	–	–	–	–	–	–	94	72	58.3
CN1c2ccccc2C(=O)N2[C@@H](C(=O)O)Cc3c([nH]c4ccccc34)[C@H]12	–	–	–	–	–	–	–	–	107	103	> 30

Second part, led by results:

inhibition [1] [%]	inhibition [3] [%]	inhibition [4] [%]	inhibition [5] [%]	inhibition [6]	inhibition [7]	inhibition [8]	inhibition [9] [%]	Structure (SMILES)	viability, % of control at 15 µM (HepG2) [%]	viability, % of control at 15 µM (MCF7) [%]	IC50 [2] [µM]
3.3	80	21	–	–	–	–	–	COC(=O)[C@@H]1Cc2c([nH]c3ccccc23)[C@H]2N(C)c3ccccc3C(=O)N12	101	90	35
26	60	61	–	–	–	–	–	CN1c2ccccc2C(=O)N2[C@H](C(=O)O)Cc3c([nH]c4ccccc34)[C@@H]12	107	128	60
4.2	–	–	20	Active	inactive	inactive	71	CN1c2ccccc2C(=O)N2CCc3c([nH]c4ccccc34)[C@H]21	69	44	2.6
6.4	62	26	–	–	–	–	–	CNC(=O)[C@@H]1Cc2c([nH]c3ccccc23)[C@H]2N(C)c3ccccc3C(=O)N12	101	94	53
1.1	–	–	21	Active	inactive	inactive	58	CN1c2ccccc2C(=O)N2CCc3c([nH]c4ccccc34)[C@@H]21 [EVODIAMINE]	76	51	13.2

— ChEMBL document CHEMBL2440052, “Quinazolinecarboline alkaloid evodiamine as scaffold for targeting topoisomerase I and sirtuins” (Bioorg Med Chem, 2013)
